Read-outs that look alike come from different tables or passages of the source.
Experiments:
HS578T cells [1] = assay: Western Blot of DNA damage and cell cycle markers; format: cell-based; conditions: 500 nM, up to 24 h
Procedure: (§1) Western-blot and phospho-array kits were used for evaluation of signaling intermediates.
(§2) HS578T and BT549 cell lines were grown in DMEM 10% of FBS and at 70% confluence were treated with Formula (III) at 500 nM for 6, 12 and 24 hours. Cells were washed with phosphate-buffered saline (PBS) (137 mM NaCl, 2.7 mM KCl, 8 mM Na2HPO4, 1.5 mM KH2PO4) and lysed in ice-cold lysis buffer (20 mM Tris-HCl [pH 7.0], 140 mM NaCl, 50 mM EDTA, 10% glycerol, 1% Nonidet P-40, 1 μM pepstatin, 1 μg/mL aprotinin, 1 μg/mL leupeptin, 1 mM phenylmethyl sulfonyl fluoride, 1 mM sodium orthovanadate). Lysates were centrifuged at 10000 g at 4° C. for 10 minutes. The protein level in the supernatants was quantified using BCA protein assay (Sigma Aldrich). A total of 50 μg of protein of each sample was used for analysis. Samples were then boiled in electrophoresis sample buffer and placed on 6%-15% sodium dodecyl sulfate-polyacrylamide gel electrophoresis (SDS-PAGE) gels, depending on the molecular weight of the proteins to be analyzed. Briefly, after electrophoresis, proteins in gels were transferred to polyvinylidene difluoride membranes (Millipore Corporation). Membranes were blocked in Tris-buffered saline with Tween (TBST) (100 mM Tris [pH 7.5], 150 mM NaCl, 0.05% Tween 20) containing 1% of bovine serum albumin for 1 h and then incubated overnight with the corresponding antibody. Anti-pS473-AKT and anti-pT308-AKT were purchased from Santa Cruz; Anti-pS6, anti-pSTAT3 and anti-GADPH were purchased from Cell Signalling Technology; Anti-pH3, were purchased from Millipore-Cell Signaling; anti-p-H2AX were purchased from BD Biosciences. After washing with TBST, membranes were incubated with HRP-conjugated anti-mouse or anti-rabbit secondary antibodies (1:5000 dilution) for 1 hour and bands were visualized by using ECL Plus Western Blotting Detection System (GE Healthcare, Buckinghamshire, United Kingdom).

[2] = test system: PI3K/mTOR/AKT and JAK/STAT pathway; assay: Western Blot of PI3K/mTOR/AKT and JAK/STAT pathway components; format: cell-based; conditions: 500 nM, up to 24 h
Procedure: as §1
as §2, with “Anti-pS473-AKT and anti-pT308-AKT were purchased from Santa Cruz; Anti-pS6, anti-pSTAT3 and anti-GADPH were purchased from Cell Signalling Technology; Anti-pH3, were purchased from Millipore-Cell Signaling; anti-p-H2AX were purchased from BD Biosciences. After washing with TBST, membranes were incubated with HRP-conjugated anti-mouse or anti-rabbit secondary antibodies (1:5000 dilution) for 1 hour and bands were visualized by using ECL Plus Western Blotting Detection System (GE Healthcare, Buckinghamshire, United Kingdom).” left out

[3] = test system: HS578T, BT549 and MDA-MB-231 cells; assay: Apoptosis by Annexin V staining, single agent; format: cell-based; conditions: 500 nM, 24 and 48 hours
Procedure: (§3) Cell cycle analyses and evaluation of apoptosis were performed by flow cytometry using propidium iodide and Annexin V, respectively.
For apoptosis analyses, HS578T, BT549 and MDA-MB-231 cell monolayers were incubated in trypsin-EDTA, washed twice with cold PBS, and then resuspended in binding buffer (10 mM HEPES free acid [pH 7.4], 140 mM NaCl, 2.5 mM CaCl2) at a concentration of 1×10^6 cells per mL. A total of 1×10^5 cells were incubated for 15 minutes in the dark with Annexin V-APC (BD Biosciences) and propidium iodide (PI) staining solution (5 μL Annexin V-[…], 10 μL of PI [[…] final concentration], 400 μL binding buffer).

[4] = test system: tyrosine and serine/threonine kinases; assay: Biochemical kinase assays
HS578T cells [5] = assay: Cell cycle analysis by flow cytometry (propidium iodide); format: cell-based; conditions: 500 nM, 24 h
Procedure: as §3
(§4) For cell cycle analyses, HS578T, BT549 and MDA-MB-231 cells were cultured in 100-mm culture dishes, grown to 70% confluence, and treated with 500 nM Formula (III) for 24 h. Cell monolayers were then incubated in trypsin-EDTA and resuspended in 1 mL of PBS. After three washes with PBS, the cell pellets were resuspended in ice cold 70% ethanol for 2 min and centrifuged 5 min at 1800 rpm. The cell pellets were treated with 1 mL of propidium iodide (PI) staining solution (PBS containing 50 μg/mL of PI, 0.5% Tween 20, 0.1 μg/mL RNase A) (BD Biosciences) and incubated in the dark for 1 h. DNA content and cell cycle analyses were performed by using a FACS canto II flow cytometer and the CellQuest software (BD Biosciences).

BT549 cells = assay: as above; format: cell-based; conditions: 500 nM, 24 h
Procedure: as §3, §4

MDA-MB-231 cells = assay: as above; format: cell-based; conditions: 500 nM, 24 h
Procedure: as §3, §4

animal models = assay: Studies in animal models; conditions: in vivo
BT-549 cells = assay: MTT metabolization, inhibition of BT-549 cell proliferation; format: cell-based; conditions: Homo sapiens, read-out: Percentage inhibition Formula (III) mean
Procedure: These triple negative breast cancer cell lines were obtained from the American Type Culture Collection Cell Biology Collection (ATCC) (Manassas, Va.). The medium was changed every 2 days.
Cell proliferation and growth experiments were carried out using 3-(4,5-dimethylthiazol-2-yl)-2,5-diphenyltetrazolium bromide (MTT) uptake assays, where MTT is reduced to purple formazan by the mitochondria of living cells. Increase in cell number is detected by augmented MTT metabolization, and decrease in cell number is reflected by a decrease. […] The cells were treated with the drug at different concentrations to plot the dose-response curves in all cancer cell lines using in the study. […] After treatment, each well was replaced with 250 μL of fresh medium containing MTT ([…]) and incubated for 1 hour. The medium was then removed and 500 μL of dimethyl sulfoxide was added to each well. The plate was agitated in the dark for 5 minutes to dissolve the MTT-formazan crystals. The absorbance of the samples was recorded at 562 nm in a multi-well plate reader (BMG labtech). Results were plotted as the mean values of quadruplicates from a representative experiment that was repeated at least two independent times.
Combination index values less than 1 indicate synergism, values equal to 1 indicate an additive effect, whereas values greater than 1 indicate antagonism. Combination index values from three independent experiments were generated.

With C[C@]12O[C@H](C[C@@H](O)[C@H]1O)n1c3ccccc3c3c4c(c5c6ccccc6n2c5c31)C(=O)NC4=O [Formula (III)] the “Cyclin B and p-Cdc2 levels” value (HS578T cells [1]) was “increase”, the “cyclin D and Cyclin A levels” value (HS578T cells [1]) was “down-regulated” and the “phosphorylated levels of γH2AX” value (HS578T cells [1]) was “increase in the phosphorylated levels of γH2AX in a time dependent manner”. For the same compound, the “phosphorylation of p53 and chk2” value (HS578T cells [1]) was “induced the phosphorylation of p53 and chk2”, the “phosphorylation of AKT, p70 S6 and STAT3” value [2] was “inhibits components of the PI3K/mTOR/AKT and JAK/STAT pathway” and the “apoptosis (Annexin V staining)” value [3] was “an increase at 48 hours, more evident in HS578T”. For the same compound, the “concentration range of kinase affinity and inhibition” value [4] was “nanomolar and subnanomolar range”, the “increase of cells in G2/M phase” value (HS578T cells [5]) was 15% and the “increase of cells in G2/M phase” value (BT549 cells) was 22%. The “increase of cells in G2/M phase” value (MDA-MB-231 cells) was 18%, the “toxicities in animal models” value (animal models) was “no evidence of toxicities” and the inhibition at 0.1 µM (BT-549 cells; BT-549, Formula (III) 100 nM alone (Table 9)) was 68.8%. It also gave an inhibition at 0.1 µM (BT-549 cells; BT-549, Formula (III) 100 nM alone (Table 10)) of 90.8%, an inhibition at 0.12 µM (BT-549 cells; BT-549, Formula (III) 120 nM alone (Table 7)) of 75.5% and an inhibition at 0.12 µM (BT-549 cells; BT-549, Formula (III) 120 nM alone) of 75.5%. For the same compound, the inhibition at 0.18 µM (BT-549 cells; BT-549, Formula (III) 180 nM alone (Table 7)) was 63.7%, the inhibition at 0.18 µM (BT-549 cells; BT-549, Formula (III) 180 nM alone) was 63.7% and the inhibition at 0.2 µM (BT-549 cells; BT-549, Formula (III) 200 nM alone (Table 8)) was 98.5%. It also gave an inhibition at 0.2 µM (BT-549 cells; BT-549, Formula (III) 200 nM alone (Table 9)) of 72.1%, an inhibition at 0.2 µM (BT-549 cells; BT-549, Formula (III) 200 nM alone (Table 10)) of 71.4% and an inhibition at 0.24 µM (BT-549 cells; BT-549, Formula (III) 240 nM alone (Table 7)) of 45%. The inhibition at 0.24 µM (BT-549 cells; BT-549, Formula (III) 240 nM alone) was 45%, the inhibition at 0.26 µM (BT-549 cells; BT-549, Formula (III) 260 nM alone (Table 8)) was 92.9% and the inhibition at 0.3 µM (BT-549 cells; BT-549, Formula (III) 300 nM alone (Table 7)) was 31.9%. The inhibition at 0.3 µM (BT-549 cells; BT-549, Formula (III) 300 nM alone (Table 8)) was 78%, the inhibition at 0.3 µM (BT-549 cells; BT-549, Formula (III) 300 nM alone (Table 9)) was 55.9% and the inhibition at 0.3 µM (BT-549 cells; BT-549, Formula (III) 300 nM alone (Table 10)) was 62.8%. It also gave an inhibition at 0.3 µM (BT-549 cells; BT-549, Formula (III) 300 nM alone) of 31.9%, an inhibition at 0.38 µM (BT-549 cells; BT-549, Formula (III) 380 nM alone (Table 8)) of 75.8% and an inhibition at 0.4 µM (BT-549 cells; BT-549, Formula (III) 400 nM alone (Table 9)) of 36.3%. For the same compound, the inhibition at 0.4 µM (BT-549 cells; BT-549, Formula (III) 400 nM alone (Table 10)) was 38.5%.

From US9808469B2, “Antitumor activity of multi-kinase inhibitors in triple negative breast cancer” (ENTRECHEM, S.L, priority 2014, dated 2017)
